Some results are limits rather than exact numbers.

The results in this text go back to publication PMC10444862, “Using macromolecular electron densities to improve the enrichment of active compounds in virtual screening” (Communications Chemistry, 2023).

The target in the test is SARS-COV-2 3CLpro (having a P132H mutation, 3CLpro^P132H) (Severe acute respiratory syndrome coronavirus 2, UniProt P0DTD1, P3395H). The test is classed as biochemical.

Consider `COc1ccc(/N=C(/Nc2ccc(OC)cc2)c2cccc3ccccc23)cc1` [E10, COc1ccc(/N=C(/Nc2ccc(OC)cc2)c2cccc3ccccc23)cc1], for which the “Inhibition Rate ([Cpd.]=40 uM)” value was less than 0.5.
As for `Cc1ccc(N2C(=O)N(CC(=O)Nc3cccc(S(N)(=O)=O)c3)C(=O)C2C)cc1` (stereo not shown) [D11, Cc1ccc(N2C(=O)N(CC(=O)Nc3cccc(S(N)(=O)=O)c3)C(=O)C2C)cc1], the “Inhibition Rate ([Cpd.]=40 uM)” value is less than 0.5.
With `O=CN1CCCN(C(=O)CC2C(=O)NCCN2Cc2cccc(Oc3ccccc3)c2)CC1` (stereo not shown) [D16, O=CN1CCCN(C(=O)CC2C(=O)NCCN2Cc2cccc(Oc3ccccc3)c2)CC1], the “Inhibition Rate ([Cpd.]=40 uM)” value was less than 0.5.
As for `O=C(c1ccco1)N1CCC[C@H](n2c(=O)n(Cc3ccccc3)c3cccnc32)C1` [D18, O=C(c1ccco1)N1CCC[C@H](n2c(=O)n(Cc3ccccc3)c3cccnc32)C1], the “Inhibition Rate ([Cpd.]=40 uM)” value is less than 0.5.
Turning to `NC(=O)C[C@H]1CN(C(=O)COc2ncccn2)C[C@H]1OC(=O)c1ccccc1` [E17, NC(=O)C[C@H]1CN(C(=O)COc2ncccn2)C[C@H]1OC(=O)c1ccccc1], the “Inhibition Rate ([Cpd.]=40 uM)” value is less than 0.5.
As to `Cc1cccc(Cn2c(=O)c(C(=O)NCc3ccco3)nn(-c3ccccc3F)c2=O)c1` [E8, Cc1cccc(Cn2c(=O)c(C(=O)NCc3ccco3)nn(-c3ccccc3F)c2=O)c1], the “Inhibition Rate ([Cpd.]=40 uM)” value is reported as 0.66.
As for `Cn1nccc1C(=O)N1CCC[C@H](n2c(=O)n(Cc3ccccc3)c3cccnc32)C1` [D15, Cn1nccc1C(=O)N1CCC[C@H](n2c(=O)n(Cc3ccccc3)c3cccnc32)C1], the “Inhibition Rate ([Cpd.]=40 uM)” value was less than 0.5.
As to `CCOc1ccc(N(Cc2nnc3n2CCCCC3)C(=O)Nc2ccc(C)cc2)cc1` [E12, CCOc1ccc(N(Cc2nnc3n2CCCCC3)C(=O)Nc2ccc(C)cc2)cc1], the “Inhibition Rate ([Cpd.]=40 uM)” value was less than 0.5.
On to `CN(CCCN(Cc1cccn1Cc1ccc(Cl)cc1)C(=O)Nc1ccccc1)c1ccccc1` [E11, CN(CCCN(Cc1cccn1Cc1ccc(Cl)cc1)C(=O)Nc1ccccc1)c1ccccc1], for which the “Inhibition Rate ([Cpd.]=40 uM)” value is reported as less than 0.5.
As for `COCCn1/c(=N/C(=O)c2c(F)cccc2F)sc2cc(S(N)(=O)=O)ccc21` [D23, COCCn1/c(=N/C(=O)c2c(F)cccc2F)sc2cc(S(N)(=O)=O)ccc21], the “Inhibition Rate ([Cpd.]=40 uM)” value was less than 0.5.
Next, `CC(=O)N1CCc2c(sc3c2c(=O)n(Cc2ccccc2)c(=O)n3Cc2cccc(C)c2)C1` [E13, CC(=O)N1CCc2c(sc3c2c(=O)n(Cc2ccccc2)c(=O)n3Cc2cccc(C)c2)C1]: less than 0.5; `COc1ccc(Cn2cc(C(CC(=O)N3CCCC3)c3ccccc3F)c3ccccc32)cc1` (stereo not shown) [D4, COc1ccc(Cn2cc(C(CC(=O)N3CCCC3)c3ccccc3F)c3ccccc32)cc1]: less than 0.5.
Next, `Cn1c(NC(=O)c2cnn3c(C(F)(F)F)cc(-c4cccc5ccccc45)nc23)nc2ccccc21` [E1, Cn1c(NC(=O)c2cnn3c(C(F)(F)F)cc(-c4cccc5ccccc45)nc23)nc2ccccc21]: 0.82; `COc1cccc(CN(CCc2c[nH]c3ccccc23)C(=O)c2ccnn2C)c1` [E19, COc1cccc(CN(CCc2c[nH]c3ccccc23)C(=O)c2ccnn2C)c1]: less than 0.5.
`CC(=O)N1CCc2c(sc3c2c(=O)n(-c2ccc(F)cc2)c(=O)n3Cc2cc(C)ccc2C)C1` [E3, CC(=O)N1CCc2c(sc3c2c(=O)n(-c2ccc(F)cc2)c(=O)n3Cc2cc(C)ccc2C)C1]: the “Inhibition Rate ([Cpd.]=40 uM)” value amounted to 0.92.
For the compound `C[C@@]1(O)C[C@H](O)CN(C(=O)[C@@H](N)Cc2ccc(O)cc2)C[C@H]1n1cnc2c(N)nc(N)nc21` [D20, C[C@@]1(O)C[C@H](O)CN(C(=O)[C@@H](N)Cc2ccc(O)cc2)C[C@H]1n1cnc2c(N)nc(N)nc21], the “Inhibition Rate ([Cpd.]=40 uM)” value is less than 0.5.
For `CC(=O)c1ccc(C(=O)N2CCc3c([nH]c4ccccc34)C2c2ccccc2F)s1` (stereo not shown) [E18, CC(=O)c1ccc(C(=O)N2CCc3c([nH]c4ccccc34)C2c2ccccc2F)s1], the “Inhibition Rate ([Cpd.]=40 uM)” value was less than 0.5.
`O=C1/C(=C\NN(Cc2ccccc2)c2ccccc2)c2ccccc2C(=O)N1c1cccc(Cl)c1` [E4, O=C1C(=CNN(Cc2ccccc2)c2ccccc2)c2ccccc2C(=O)N1c1cccc(Cl)c1]: the “Inhibition Rate ([Cpd.]=40 uM)” value is on record as 0.65.
As to `O=C(CSc1nc(-c2ccccc2F)nc2c1cnn2-c1ccccc1)NC1CC1` [E23, O=C(CSc1nc(-c2ccccc2F)nc2c1cnn2-c1ccccc1)NC1CC1], the “Inhibition Rate ([Cpd.]=40 uM)” value is less than 0.5.
Turning to `CCn1c(=O)n(CCC(=O)NC(Cc2ccccc2)c2nc3ccccc3[nH]2)c2ccccc21` (stereo not shown) [E2, CCn1c(=O)n(CCC(=O)NC(Cc2ccccc2)c2nc3ccccc3[nH]2)c2ccccc21], the “Inhibition Rate ([Cpd.]=40 uM)” value was 0.67.
Turning to `CCN(CC)C(=O)c1sc2c(c1C)c(=O)n(-c1ccccc1)c(=O)n2Cc1cccc(Cl)c1` [E15, CCN(CC)C(=O)c1sc2c(c1C)c(=O)n(-c1ccccc1)c(=O)n2Cc1cccc(Cl)c1], the “Inhibition Rate ([Cpd.]=40 uM)” value was less than 0.5.
Consider `O=C(c1ccsc1)N1CCC[C@H](n2c(=O)n(Cc3cccc(F)c3)c3cccnc32)C1` [D8, O=C(c1ccsc1)N1CCC[C@H](n2c(=O)n(Cc3cccc(F)c3)c3cccnc32)C1], for which the “Inhibition Rate ([Cpd.]=40 uM)” value is less than 0.5.
In the case of `COc1ccccc1-n1c(=O)c2c3c(sc2n(Cc2cccc(Cl)c2)c1=O)CN(C(C)=O)CC3` [D7, COc1ccccc1-n1c(=O)c2c3c(sc2n(Cc2cccc(Cl)c2)c1=O)CN(C(C)=O)CC3], the “Inhibition Rate ([Cpd.]=40 uM)” value is given as less than 0.5.
With `CC(C)[C@H](NS(=O)(=O)c1ccccc1F)C(=O)OCC(=O)Nc1cccc(S(N)(=O)=O)c1` [D13, CC(C)[C@H](NS(=O)(=O)c1ccccc1F)C(=O)OCC(=O)Nc1cccc(S(N)(=O)=O)c1], the “Inhibition Rate ([Cpd.]=40 uM)” value is less than 0.5.
Under `Cc1ccccc1N1C(=O)C(=Cc2ccc(N3CCOCC3)cc2)c2ccccc2C1=O` [D9, Cc1ccccc1N1C(=O)C(=Cc2ccc(N3CCOCC3)cc2)c2ccccc2C1=O] stands less than 0.5; under `O=C1[C@@H]2Cc3c([nH]c4ccccc34)C(c3cccc([N+](=O)[O-])c3)N2C(=O)CN1CC(O)c1ccccc1` (stereo partly shown) [E21, O=C1[C@@H]2Cc3c([nH]c4ccccc34)C(c3cccc([N+](=O)[O-])c3)N2C(=O)CN1CC(O)c1ccccc1], less than 0.5.
On to `O=C(Nc1ccccc1)N1CCCC(C(=O)N2CC(C(=O)N3CCCCC3)Oc3ccccc32)C1` (stereo not shown) [D19, O=C(Nc1ccccc1)N1CCCC(C(=O)N2CC(C(=O)N3CCCCC3)Oc3ccccc32)C1], for which the “Inhibition Rate ([Cpd.]=40 uM)” value is less than 0.5.
Next, `CCc1ccccc1N(CC(=O)Nc1ccccc1C(=O)NC(C)CC)S(=O)(=O)c1ccccc1` (stereo not shown) [E9, CCc1ccccc1N(CC(=O)Nc1ccccc1C(=O)NC(C)CC)S(=O)(=O)c1ccccc1]: 0.54.
For the compound `O=C(c1cc(=O)c2ccccc2o1)N1CCc2c([nH]c3ccccc23)C1c1ccccc1F` (stereo not shown) [E22, O=C(c1cc(=O)c2ccccc2o1)N1CCc2c([nH]c3ccccc23)C1c1ccccc1F], the “Inhibition Rate ([Cpd.]=40 uM)” value is listed as less than 0.5.
With `O=C(CN1C(=O)NC2(CCCC2)C1=O)Nc1ccccc1C(=O)Nc1ccc2c(c1)OCO2` [D2, O=C(CN1C(=O)NC2(CCCC2)C1=O)Nc1ccccc1C(=O)Nc1ccc2c(c1)OCO2], the “Inhibition Rate ([Cpd.]=40 uM)” value worked out at 0.56.
Regarding `C/C(=N\Nc1nc2c(c(=O)[nH]c(=O)n2C)n1Cc1cccc2ccccc12)c1ccc(O)cc1` [D1, C/C(=N\Nc1nc2c(c(=O)[nH]c(=O)n2C)n1Cc1cccc2ccccc12)c1ccc(O)cc1], the “Inhibition Rate ([Cpd.]=40 uM)” value is recorded as 1.49.
Under `CC(C)C(NC(=O)c1ccccc1Cl)C(=O)OCC(=O)Nc1cccc(S(N)(=O)=O)c1` (stereo not shown) [D6, CC(C)C(NC(=O)c1ccccc1Cl)C(=O)OCC(=O)Nc1cccc(S(N)(=O)=O)c1] stands less than 0.5; under `COc1cccc(-n2c(=O)c3c(C)c(C(=O)N(C)C)sc3n(Cc3cccc(F)c3)c2=O)c1` [E14, COc1cccc(-n2c(=O)c3c(C)c(C(=O)N(C)C)sc3n(Cc3cccc(F)c3)c2=O)c1], less than 0.5.
As to `O=C(c1cccc(O)c1)N1C[C@@H](c2cc(F)cc(F)c2)[C@@H]2[C@H]1C1CCN2CC1` [D24, O=C(c1cccc(O)c1)N1C[C@@H](c2cc(F)cc(F)c2)[C@@H]2[C@H]1C1CCN2CC1], the “Inhibition Rate ([Cpd.]=40 uM)” value was less than 0.5.
Next, `Cc1c(C(=O)N(C)Cc2ccccc2)sc2ncnc(N(C)c3ccccc3)c12` [D14, Cc1c(C(=O)N(C)Cc2ccccc2)sc2ncnc(N(C)c3ccccc3)c12]: less than 0.5; `Cc1c(C(=O)NCCC2=CCCCC2)sc2ncnc(N(C)c3ccccc3)c12` [D3, Cc1c(C(=O)NCCC2=CCCCC2)sc2ncnc(N(C)c3ccccc3)c12]: 0.63; `O=C(NC(c1ccccc1)c1ccc2[nH]cnc2c1)C1=NN(C2CCS(=O)(=O)C2)C(=O)CC1` (stereo not shown) [D21, O=C(NC(c1ccccc1)c1ccc2[nH]cnc2c1)C1=NN(C2CCS(=O)(=O)C2)C(=O)CC1]: less than 0.5.
With `C/C(=N\Nc1nc2c(c(O)nc(=O)n2C)n1Cc1cccc2ccccc12)c1ccc(O)cc1` [D10, C/C(=N\Nc1nc2c(c(O)nc(=O)n2C)n1Cc1cccc2ccccc12)c1ccc(O)cc1], the “Inhibition Rate ([Cpd.]=40 uM)” value is less than 0.5.
On to `O=C(c1cccnc1)N1CCc2c([nH]c3ccccc23)C1c1cccc(C(F)(F)F)c1` (stereo not shown) [E6, O=C(c1cccnc1)N1CCc2c([nH]c3ccccc23)C1c1cccc(C(F)(F)F)c1], for which the “Inhibition Rate ([Cpd.]=40 uM)” value came to 0.55.
Consider `CC1CC(C)CN(C(=O)c2ccccc2NC(=O)N2CC(O)CC(F)(F)C2)C1` (stereo not shown) [D12, CC1CC(C)CN(C(=O)c2ccccc2NC(=O)N2CC(O)CC(F)(F)C2)C1], for which the “Inhibition Rate ([Cpd.]=40 uM)” value was less than 0.5.
As to `COc1ccccc1-n1c(=O)c2c3c(sc2n(Cc2ccccc2)c1=O)CN(C(C)=O)CC3` [D17, COc1ccccc1-n1c(=O)c2c3c(sc2n(Cc2ccccc2)c1=O)CN(C(C)=O)CC3], the “Inhibition Rate ([Cpd.]=40 uM)” value was less than 0.5.
Consider `COc1ccccc1-n1c(=O)c2c3c(sc2n(Cc2cccc(F)c2)c1=O)CN(C(C)=O)CC3` [D5, COc1ccccc1-n1c(=O)c2c3c(sc2n(Cc2cccc(F)c2)c1=O)CN(C(C)=O)CC3], for which the “Inhibition Rate ([Cpd.]=40 uM)” value is given as less than 0.5.
Take `CC(=O)N1C(C(=O)N(CCc2ccccc2)Cc2ccccc2)CSC1c1ccccc1O` (stereo not shown) [E7, CC(=O)N1C(C(=O)N(CCc2ccccc2)Cc2ccccc2)CSC1c1ccccc1O]: the “Inhibition Rate ([Cpd.]=40 uM)” value stood at 0.63.
